Three molecules from patent US7790172B2, “Methods for reducing nasopharyngeal colonization of non-typable Haemophilus influenzae with synthetic chimeric fimbrin peptides” (priority 1995, dated 2010) can be followed below.

Values after ≈ are worked out from the molar mass of the structure shown. Peptide text beside a SMILES is read from it.

Data set [1] deals with T1, NTHi #1128 fimbrial protein (Haemophilus influenzae, UniProt P45996).
T1 construct: isolated, reassembled, homologous fimbrial protein from NTHi; endogenous in cells; host or cells: NTHi strain #1128 (protein isolated from the bacterial outer membrane)
T1 sequence (P45996 22-359): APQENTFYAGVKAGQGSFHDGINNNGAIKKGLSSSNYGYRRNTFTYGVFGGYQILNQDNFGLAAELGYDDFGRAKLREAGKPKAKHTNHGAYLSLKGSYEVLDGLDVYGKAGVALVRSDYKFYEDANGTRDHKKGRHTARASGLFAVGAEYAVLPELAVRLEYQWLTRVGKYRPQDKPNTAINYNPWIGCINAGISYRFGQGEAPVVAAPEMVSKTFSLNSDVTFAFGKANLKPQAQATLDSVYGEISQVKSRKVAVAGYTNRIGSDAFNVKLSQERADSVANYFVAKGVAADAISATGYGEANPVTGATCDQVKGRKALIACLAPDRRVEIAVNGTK
Format: in vivo, non-typable Haemophilus influenzae. The note with it: chinchilla sera 2 weeks after second dose; ELISA. As for the experimental part:
(§1) The chinchillas received a second dose of 50 μg of either the LB1 or LB2 in incomplete Freund's adjuvant 30 days later. Sera was obtained 2 weeks after the second dose.
For orientation: ELISA stands for enzyme-linked immunosorbent assay.

In data set [2] the test system is antibodies in sera directed to NTHi. Nature of the data set: Anti-serum ELISA using synthetic chimeric fimbrin peptides as coating antigen. Format: binding. As to conditions: peptide as ELISA antigen, chinchilla sera.
Description: An anti-serum Elisa was performed by first coating an immulon 1, flat bottom plate containing 96 wells with varied concentrations of LB1 and LB2 according to the dilute checkerboard assay method. The LB1 and LB2 were diluted first in carbonate-bicarbonate buffer at pH 9.6. This coating buffer contained 1.59 g/L NaCO3, 2.93 g/L NaHCO3 at a pH of 9.6. 50 μl of the LB1 or LB2 were added for each well and incubated at 4° C. overnight. After the overnight incubation, the liquid was emptied from the plates and 100 μl per well of 10 mM PBS at pH 7.4 with 0.5% BSA was added, and incubated at 37° C. for 1 hour. Next, the liquid was emptied from the plate and washed three times with 10 mM PBS at pH 7.4 with 0.05% Tween 20 (PBT) at a volume of 250 μl per well. Then the plate was emptied by pounding three times onto paper towels. Next, 50 μl per well of the sera to be assayed was diluted in 10 mM PBS at a pH of 7.4 and added to the plate and incubated at 37° C. for one hour. The liquid was then emptied from the plates and washed three times with 10 mM PBS at pH 7.4 containing 0.05% Tween 20 (PBT) at a volume of 250 μl per well and the plates were pounded three times onto paper towels. Next, 500 μl per well of secondary antibody diluted 1 to 1000 times in PBT was added. Where the sera to be assayed was rabbit, the secondary antibody was HRP chimeric goat anti-rabbit antibody. Where the sera to be assayed was chinchilla sera, then the secondary antibody was HRP protein A. The secondary antibody was incubated at 37° C. for one hour. Next, the liquid was emptied from the plates and washed three times with 10 mM PBS at pH 7.4 containing 0.05% Tween 20. Next, one tablet o-phenylenediamine was suspended in 12 ml citrate phosphate buffer at pH 5.0. The citrate phosphate buffer contained 0.1 M citric acid, 1.0 M Na2HPO4 at pH 5.0. Next 12 μl 30% H2O2 was added to the o-phenylenediamine solution and 100 μl of this mixture was added to each well. The solution was incubated at room temperature in the dark and after 10 minutes, the absorbencies were read at 400 nm. The reaction was stopped at 16 minutes with 100μ per well of 2NH2SO4 and the plates were then read at 490 nm.
The subject of data set [3] is NTHi strain 1128. The experiment in a line: Nasopharyngeal colonization by NTHi in immunized chinchillas (nasopharyngeal lavage). Format: in vivo, chinchilla. As for the experimental part: Nasopharyngeal colonization by NTHi was/were examined in two separate trials, study A and study B.
In study A, five cohorts of four chinchillas each were actively immunized with one of the following preparations: in complete Freund's adjuvant or a saline control preparation; 100 μg of the synthetic chimeric fimbrin peptide LB1, 100 μg of a total outer membrane protein preparation from strain #1128; 100 μg of the synthetic chimeric fimbrin peptide LB2; 10 μg isolated fimbrin protein preparation from strain #1128. The total outer membrane preparation and fimbrin were assessed for endotoxin content prior to their use as an immunogen via a chromogenic Amoebocyte Lysate assay which is commercially available from Whittaker Bioproducts under the designation QCL-1000. The preparations were subcutaneously injected into the chinchillas.
Then 30 days later the animals received a booster of one-half of the initial dosage of the same immunogen but in incomplete Freund's adjuvant. Ten days later they received 6×10^6 TCID50 adenovirus intranasally. Thereafter, these five cohorts were divided into two groups each and challenged intranasally, about 5×10^7cfu of NTHi strain 1128. The chinchillas were subject to nasopharyngeal lavage over a 21 day period, and the lavage fluid was examined and quantified for NTHi. The NTHi concentration was determined by plating on selective media. The NTHi lavage fluid concentration was plotted over time.
Again, the NTHi lavage fluid concentration was plotted over time.

Data set [4] addresses T2, NTHi #1128 isolated fimbrin protein (25 and 37 kDa species) (Haemophilus influenzae, UniProt P45996).
T2 construct: isolated, reassembled, homologous fimbrial protein from NTHi; endogenous in cells; host or cells: NTHi strain #1128 (protein isolated from the bacterial outer membrane)
T2 sequence (P45996 22-359): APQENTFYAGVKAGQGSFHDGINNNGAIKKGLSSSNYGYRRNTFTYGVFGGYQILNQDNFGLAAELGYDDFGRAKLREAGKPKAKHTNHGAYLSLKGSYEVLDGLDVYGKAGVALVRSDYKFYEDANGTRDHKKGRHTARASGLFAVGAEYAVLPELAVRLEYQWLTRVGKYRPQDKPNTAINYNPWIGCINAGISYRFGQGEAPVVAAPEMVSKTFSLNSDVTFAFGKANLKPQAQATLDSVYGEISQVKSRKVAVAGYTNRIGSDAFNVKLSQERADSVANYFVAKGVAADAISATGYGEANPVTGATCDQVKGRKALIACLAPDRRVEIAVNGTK
Format: binding, non-typable Haemophilus influenzae. As to conditions: rabbit antisera; fimbrin isolated from NTHi strain #1128.
Description: Two rabbits were immunized with the LB1 synthetic chimeric fimbrin peptide and two rabbits were immunized with the LB2 synthetic chimeric fimbrin peptide. Rabbits received an initial immunizing dose of 500 μg of either the LB1 or LB2 in complete Freund's adjuvant. The rabbits received a second dose of 400 μg of the synthetic chimeric fimbrin peptide 21 days later. The rabbits received a third dose of synthetic chimeric fimbrin peptide in complete Freund's adjuvant 42 days later with 400 μg of the same peptide in either incomplete Freud's adjuvant (IFA) or phosphate buffered saline (PBS) (one rabbit per diluent). Sera was obtained 3 weeks after each dose. The sera from each animal was assessed for titer and specificity against LB1, LB2 and fimbrial protein, by both ELISA and Western blot.

In data set [5] the test system is NTHi strain #1128. Nature of the data set: Inhibition of adherence of NTHi to active ciliated chinchilla tracheal mucosal epithelium. Format: cell-based, non-typable Haemophilus influenzae. The note with it: dose dependence, 50 and 100 μg/ml. How it is done:
LB1 and LB2 were each added to the lumen of excised 15 chinchilla tracheas and incubated for about 1 hour. Next 10^8cFu NTHi/ml were added to the cultures and incubated for about 1 hour. The tracheas were rinsed, homogenized, diluted and plated onto chocolate agar. The NTHi colonies were then counted.

The nature of data set [6]: Solubility in water. Format: physicochemical.
The test system of data set [7] is fimbrin from NTHi #1128 and NTHi #86-028NP. Nature of the data set: Western immunoblot of chinchilla antisera. Format: binding, non-typable Haemophilus influenzae. As to conditions: for Western immunoblot recognition by antisera of homologous fimbrin / peptides: NTHi #1128 OMP preparation, isolated fimbrin, LB1, LB2; for Western immunoblot recognition by antisera of heterologous fimbrin: NTHi #86-028NP.
Description: FIG. 2A is a western immunoblot of chinchilla anti-LB1 antisera. Lane a contains a mixture of sera and NTHi #1128 enriched OMP preparation. Lane b contains a mixture of sera and isolated fimbrin from NTHi #1128. Lane c contains a mixture of sera and LB1. Lane d contains a mixture of sera and LB2. Lane e contains a mixture of sera and NTHi #86-028NP enriched OMP preparation. Lane f contains a mixture of sera and isolated fimbrin from NTHi #86-028NP. The lane marked “Std” contains pre-stained molecular mass markers; mass in kDa is given along left side of immunoblot.
FIG. 2B is a western immunoblot of chinchilla anti-LB2 antisera. Lane a contains a mixture of sera and NTHi #1128 enriched OMP preparation. Lane b contains a mixture of sera and isolated fimbrin from NTHi #1128. Lane c contains a mixture of sera and LB1. Lane D contains a mixture of sera and LB2. Lane e contains a mixture of sera and NTHi #86-028NP enriched OMP preparation. Lane f contains a mixture of sera and isolated fimbrin from NTHi #86-028NP. The lane marked “Std” contains pre-stained molecular mass markers; mass in kDa is given along left side of immunoblot.
FIG. 2C is a western immunoblot of chinchilla anti-fimbrial protein antisera. Lane a contains a mixture of sera and NTHi #1128 enriched OMP preparation. Lane b contains a mixture of sera and isolated fimbrin from NTHi #1128. Lane c contains a mixture of sera and LB1. Lane d contains a mixture of sera and LB2. Lane e contains a mixture of sera and NTHi #86-028NP enriched OMP preparation. Lane f contains a mixture of sera and isolated fimbrin from NTHi #86-028NP. The lane marked “Std” contains pre-stained molecular mass markers; mass in kDa is given along left side of immunoblot.
as §1
For orientation: Immunoblotting shows a protein as a band on a membrane.

For data set [8], the system named is native fimbriae of whole, unfixed NTHi strain #1128. Nature of the data set: Indirect immunogold labeling of unfixed NTHi with chinchilla antiserum (transmission electron micrograph). Format: binding, non-typable Haemophilus influenzae. The text has this: FIG. 3 is a transmission electron micrograph of two unfixed NTHi strain #1128 cells, shown at bottom of the Figure, which were indirectly immuno-labeled with chinchilla anti-LB1IFA serum and 10 nm gold-chimeric Protein A.
Two unfixed NTHi strain #1128 cells were indirectly immunolabeled with chinchilla anti-LB1IFA serum and 10 nm gold-chimeric Protein A. The preparation was subjected to stable, low-angle shadow casting with platinum and palladium to impart a sense of height to low-profile fimbriae.

Where [9] appears, read: study A, chinchillas immunized with 100 μg peptide plus booster, intranasal challenge about 5×10^7 cfu NTHi strain 1128, FIG. 4.
Setting [10] is: study B, higher intranasal challenge dose 1.5×10^8 cfu/animal NTHi #1128, FIG. 5.

Turning to `CC[C@H](C)[C@H](NC(=O)[C@H](CC(C)C)NC(=O)[C@H](CO)NC(=O)[C@H](CC(C)C)NC(=O)[C@H](CC(C)C)NC(=O)[C@H](CCCCN)NC(=O)[C@H](CC(C)C)NC(=O)[C@H](CO)NC(=O)[C@@H]1CCCN1C(=O)CNC(=O)[C@H](CCCCN)NC(=O)[C@H](CCCCN)NC(=O)[C@H](Cc1c[nH]cn1)NC(=O)[C@H](CC(=O)O)NC(=O)[C@H](CCCNC(=N)N)NC(=O)[C@@H](NC(=O)CNC(=O)[C@H](CC(N)=O)NC(=O)[C@H](C)NC(=O)[C@H](CC(=O)O)NC(=O)[C@H](CCC(=O)O)NC(=O)[C@H](Cc1ccc(O)cc1)NC(=O)[C@H](Cc1ccccc1)NC(=O)[C@H](CCCCN)NC(=O)[C@H](Cc1ccc(O)cc1)NC(=O)[C@H](CC(=O)O)NC(=O)[C@H](CO)NC(=O)[C@@H](N)CCCNC(=N)N)[C@@H](C)O)C(=O)N[C@@H](CCCCN)C(=O)NCC(=O)N[C@H](C(=O)N[C@H](C(=O)N[C@H](C(=O)N[C@@H](Cc1c[nH]cn1)C(=O)N[C@@H](CCCNC(=N)N)C(=O)N[C@@H](CC(C)C)C(=O)N[C@@H](CCC(=O)O)C(=O)NCC(=O)N[C@H](C(=O)N[C@@H](CCC(=O)O)C(=O)O)C(C)C)C(C)C)[C@@H](C)CC)C(C)C` [LB1] (H-RSDYKFYEDANGTRDHKKGPSLKLLSLIKGVIVHRLEGVE-OH), the “Reciprocal Titer of Sera against: NTHi #1128 fimbrial protein” value in data set [1] is listed as 15,000. The “Reciprocal Titer” value in data set [2] (post infection) is on record as over 500; in data set [2] (pre infection) it was “≦100”. The “NTHi in nasopharyngeal lavage fluid by Day 21” value in data set [3] (setting [9]) and in data set [3] (setting [10]) was 0 in each case. Moreover, the “Western blot reactivity of antisera with fimbrin” value in data set [4] was “sera reactivity to fimbrin (both molecular weight species) occurred only after immunization”. Further, the “Effect on inhibition of adherence of NTHi strain #1128 to ciliated chinchilla tracheal epithelium” value in data set [5] is listed as “dose-dependent effect on inhibition of adherence”. The solubility (commonly the dissolved amount per volume that the medium holds) in data set [6] was about 10000 µg/mL (≈ 2190 µM). In addition, the “Western immunoblot recognition by antisera of homologous fimbrin / peptides” value in data set [7] was “only recognized the LB1”.
On to `CC[C@H](C)[C@H](NC(=O)[C@H](CC(C)C)NC(=O)[C@H](CO)NC(=O)[C@H](CC(C)C)NC(=O)[C@H](CC(C)C)NC(=O)[C@H](CCCCN)NC(=O)[C@H](CC(C)C)NC(=O)[C@H](CO)NC(=O)[C@@H]1CCCN1C(=O)CNC(=O)[C@@H](NC(=O)[C@H](CC(N)=O)NC(=O)[C@@H]1CCCN1C(=O)[C@H](CCCCN)NC(=O)[C@H](CC(=O)O)NC(=O)[C@H](CCC(N)=O)NC(=O)[C@@H]1CCCN1C(=O)[C@H](CCCNC(=N)N)NC(=O)[C@H](Cc1ccc(O)cc1)NC(=O)[C@H](CCCCN)NC(=O)CNC(=O)[C@@H](NC(=O)[C@H](CCCNC(=N)N)NC(=O)[C@@H](NC(=O)[C@H](CC(C)C)NC(=O)[C@H](Cc1c[nH]c2ccccc12)NC(=O)[C@H](CCC(N)=O)NC(=O)[C@@H](N)Cc1ccc(O)cc1)[C@@H](C)O)C(C)C)[C@@H](C)O)C(=O)N[C@@H](CCCCN)C(=O)NCC(=O)N[C@H](C(=O)N[C@H](C(=O)N[C@H](C(=O)N[C@@H](Cc1c[nH]cn1)C(=O)N[C@@H](CCCNC(=N)N)C(=O)N[C@@H](CC(C)C)C(=O)N[C@@H](CCC(=O)O)C(=O)NCC(=O)N[C@H](C(=O)N[C@@H](CCC(=O)O)C(=O)O)C(C)C)C(C)C)[C@@H](C)CC)C(C)C` [LB2] (H-YQWLTRVGKYRPQDKPNTGPSLKLLSLIKGVIVHRLEGVE-OH), for which the “Reciprocal Titer of Sera against: NTHi #1128 fimbrial protein” value in data set [1] was 10,000. Also, the results for the “Reciprocal Titer” value in data set [2] (post infection) and in data set [2] (pre infection) were 500 and “≦100”, respectively. The “NTHi in nasopharyngeal lavage fluid by Day 21” value in data set [3] (setting [9]) is given as 0; in data set [3] (setting [10]), “performed less well”. The same molecule came in with a solubility in data set [6] of about 10000 µg/mL (≈ 2180 µM). In addition, the “Western immunoblot recognition by antisera of heterologous fimbrin” value in data set [7] was “recognized heterologous fimbrin contained in the outer membrane preparation”. Also, the “Western immunoblot recognition by antisera of homologous fimbrin / peptides” value in data set [7] is “recognized homologous fimbrin”. In data set [8], the “Recognition of native fimbriae by antiserum (immunogold labeling)” value is “Equivalent results”.

B1: fimbrin: isolated fimbrin protein preparation from NTHi strain #1128, used as comparison immunogen (protein)
chain: APQENTFYAGVKAGQGSFHDGINNNGAIKKGLSSSNYGYRRNTFTYGVFGGYQILNQDNFGLAAELGYDDFGRAKLREAGKPKAKHTNHGAYLSLKGSYEVLDGLDVYGKAGVALVRSDYKFYEDANGTRDHKKGRHTARASGLFAVGAEYAVLPELAVRLEYQWLTRVGKYRPQDKPNTAINYNPWIGCINAGISYRFGQGEAPVVAAPEMVSKTFSLNSDVTFAFGKANLKPQAQATLDSVYGEISQVKSRKVAVAGYTNRIGSDAFNVKLSQERADSVANYFVAKGVAADAISATGYGEANPVTGATCDQVKGRKALIACLAPDRRVEIAVNGTK
As for B1, in data set [7], the “Western immunoblot recognition by antisera of heterologous fimbrin” value was “recognizes a heteroloous fimbrin” and the “Western immunoblot recognition by antisera of homologous fimbrin / peptides” value is “recognizes itself”.
